Assay results taken from BigSolDB 2.1.

O=Cc1cccc([N+](=O)[O-])c1
Conditions | solubility (mole fraction)
in DMF, 273.15 K | 0.324
in DMF, 275.65 K | 0.347
in DMF, 278.15 K | 0.368
in DMF, 280.65 K | 0.393
in DMF, 283.15 K | 0.419
in DMF, 285.65 K | 0.447
in DMF, 288.15 K | 0.472
in DMF, 290.65 K | 0.503
in DMF, 293.15 K | 0.528
in DMF, 295.65 K | 0.561
in DMF, 298.15 K | 0.594
in DMF, 300.65 K | 0.627
in DMF, 303.15 K | 0.66
in acetic acid, 290.65 K | 0.159
in acetic acid, 293.15 K | 0.182
in acetic acid, 295.65 K | 0.206
in acetic acid, 298.15 K | 0.235
in acetic acid, 300.65 K | 0.267
in acetic acid, 303.15 K | 0.304
in acetone, 273.15 K | 0.164
in acetone, 275.65 K | 0.184
in acetone, 278.15 K | 0.206
in acetone, 280.65 K | 0.231
in acetone, 283.15 K | 0.258
in acetone, 285.65 K | 0.289
in acetone, 288.15 K | 0.322
in acetone, 290.65 K | 0.359
in acetone, 293.15 K | 0.401
in acetone, 295.65 K | 0.445
in acetone, 298.15 K | 0.487
in acetone, 300.65 K | 0.534
in acetone, 303.15 K | 0.585
in acetonitrile, 273.15 K | 0.165
in acetonitrile, 275.65 K | 0.183
in acetonitrile, 278.15 K | 0.204
in acetonitrile, 280.65 K | 0.226
in acetonitrile, 283.15 K | 0.251
in acetonitrile, 285.65 K | 0.277
in acetonitrile, 288.15 K | 0.307
in acetonitrile, 290.65 K | 0.338
in acetonitrile, 293.15 K | 0.371
in acetonitrile, 295.65 K | 0.409
in acetonitrile, 298.15 K | 0.449
in acetonitrile, 300.65 K | 0.49
in acetonitrile, 303.15 K | 0.532
in cyclohexane, 283.15 K | 0.00147
in cyclohexane, 285.65 K | 0.00175
in cyclohexane, 288.15 K | 0.00204
in cyclohexane, 290.65 K | 0.0024
in cyclohexane, 293.15 K | 0.00283
in cyclohexane, 295.65 K | 0.00334
in cyclohexane, 298.15 K | 0.00394
in cyclohexane, 300.65 K | 0.00456
in cyclohexane, 303.15 K | 0.0053
in ethanol, 273.15 K | 0.0358
in ethanol, 275.65 K | 0.0416
in ethanol, 278.15 K | 0.048
in ethanol, 280.65 K | 0.0555
in ethanol, 283.15 K | 0.0637
in ethanol, 285.65 K | 0.0736
in ethanol, 288.15 K | 0.0844
in ethanol, 290.65 K | 0.0959
in ethanol, 293.15 K | 0.109
in ethanol, 295.65 K | 0.125
in ethanol, 298.15 K | 0.141
in ethanol, 300.65 K | 0.161
in ethanol, 303.15 K | 0.183
in ethyl acetate, 273.15 K | 0.146
in ethyl acetate, 275.65 K | 0.164
in ethyl acetate, 278.15 K | 0.185
in ethyl acetate, 280.65 K | 0.206
in ethyl acetate, 283.15 K | 0.229
in ethyl acetate, 285.65 K | 0.256
in ethyl acetate, 288.15 K | 0.285
in ethyl acetate, 290.65 K | 0.316
in ethyl acetate, 293.15 K | 0.348
in ethyl acetate, 295.65 K | 0.385
in ethyl acetate, 298.15 K | 0.425
in ethyl acetate, 300.65 K | 0.465
in ethyl acetate, 303.15 K | 0.511
in isopropanol, 273.15 K | 0.00629
in isopropanol, 275.65 K | 0.00735
in isopropanol, 278.15 K | 0.0086
in isopropanol, 280.65 K | 0.00997
in isopropanol, 283.15 K | 0.0115
in isopropanol, 285.65 K | 0.0133
in isopropanol, 288.15 K | 0.0153
in isopropanol, 290.65 K | 0.0176
in isopropanol, 293.15 K | 0.0203
in isopropanol, 295.65 K | 0.0232
in isopropanol, 298.15 K | 0.0267
in isopropanol, 300.65 K | 0.0305
in isopropanol, 303.15 K | 0.035
in methanol, 273.15 K | 0.0889
in methanol, 275.65 K | 0.103
in methanol, 278.15 K | 0.118
in methanol, 280.65 K | 0.136
in methanol, 283.15 K | 0.156
in methanol, 285.65 K | 0.178
in methanol, 288.15 K | 0.203
in methanol, 290.65 K | 0.23
in methanol, 293.15 K | 0.261
in methanol, 295.65 K | 0.295
in methanol, 298.15 K | 0.332
in methanol, 300.65 K | 0.373
in methanol, 303.15 K | 0.419
in n-butanol, 273.15 K | 0.0206
in n-butanol, 275.65 K | 0.0235
in n-butanol, 278.15 K | 0.0274
in n-butanol, 280.65 K | 0.0314
in n-butanol, 283.15 K | 0.0357
in n-butanol, 285.65 K | 0.041
in n-butanol, 288.15 K | 0.0466
in n-butanol, 290.65 K | 0.0529
in n-butanol, 293.15 K | 0.0596
in n-butanol, 295.65 K | 0.0677
in n-butanol, 298.15 K | 0.0764
in n-butanol, 300.65 K | 0.086
in n-butanol, 303.15 K | 0.0973
in n-propanol, 273.15 K | 0.0254
in n-propanol, 275.65 K | 0.0293
in n-propanol, 278.15 K | 0.0338
in n-propanol, 280.65 K | 0.0385
in n-propanol, 283.15 K | 0.0442
in n-propanol, 285.65 K | 0.0505
in n-propanol, 288.15 K | 0.0575
in n-propanol, 290.65 K | 0.0648
in n-propanol, 293.15 K | 0.0729
in n-propanol, 295.65 K | 0.0833
in n-propanol, 298.15 K | 0.0942
in n-propanol, 300.65 K | 0.106
in n-propanol, 303.152 K | 0.12
in toluene, 273.15 K | 0.0957
in toluene, 275.65 K | 0.11
in toluene, 278.15 K | 0.126
in toluene, 280.65 K | 0.144
in toluene, 283.15 K | 0.167
in toluene, 285.65 K | 0.188
in toluene, 288.15 K | 0.215
in toluene, 290.65 K | 0.245
in toluene, 293.15 K | 0.276
in toluene, 295.65 K | 0.31
in toluene, 298.15 K | 0.347
in toluene, 300.65 K | 0.385
in toluene, 303.15 K | 0.428
